Source: the NIST ThermoML archive (doi:10.1016/j.tca.2008.11.005)
Numbers after ± are expanded uncertainties.

Details: Liquid

With `CCO` [ethanol] the “vapor or sublimation pressure” value (303.95 K) was 11.32 ± 4.3 kPa, the “vapor or sublimation pressure” value (315.75 K) was 21.32 ± 4.7 kPa and the “vapor or sublimation pressure” value (323.5 K) was 31.32 ± 5.1 kPa. The “vapor or sublimation pressure” value (329.35 K) was 41.33 ± 5.5 kPa, the “vapor or sublimation pressure” value (334.05 K) was 51.33 ± 5.9 kPa and the “vapor or sublimation pressure” value (338.05 K) was 61.33 ± 6.3 kPa. For the same compound, the “vapor or sublimation pressure” value (341.65 K) was 71.33 ± 6.7 kPa, the “vapor or sublimation pressure” value (344.75 K) was 81.33 ± 7.1 kPa and the “vapor or sublimation pressure” value (347.55 K) was 91.33 ± 7.5 kPa. For the same compound, the “vapor or sublimation pressure” value (350.15 K) was 101.33 ± 7.9 kPa.

For `C[SiH]1O[SiH](C)O[SiH](C)O[SiH](C)O[SiH](C)O1` (stereo not given) [2,4,6,8,10-pentamethylcyclopentasiloxane], the “vapor or sublimation pressure” value (330.8 K) was 1.325 kPa, the “vapor or sublimation pressure” value (348.03 K) was 3.325 ± 4 kPa and the “vapor or sublimation pressure” value (357.45 K) was 5.325 ± 4.1 kPa. The “vapor or sublimation pressure” value (364.75 K) was 7.325 ± 4.2 kPa, the “vapor or sublimation pressure” value (370.73 K) was 9.325 ± 4.2 kPa and the “vapor or sublimation pressure” value (375.49 K) was 11.32 ± 4.3 kPa. For the same compound, the “vapor or sublimation pressure” value (378.23 K) was 13.32 ± 4.4 kPa, the “vapor or sublimation pressure” value (381.78 K) was 15.32 ± 4.5 kPa and the “vapor or sublimation pressure” value (385.02 K) was 17.32 ± 4.5 kPa. For the same compound, the “vapor or sublimation pressure” value (387.96 K) was 19.32 ± 4.6 kPa, the “vapor or sublimation pressure” value (390.75 K) was 21.32 ± 4.7 kPa and the “vapor or sublimation pressure” value (393.18 K) was 23.32 ± 4.8 kPa. The “vapor or sublimation pressure” value (395.46 K) was 25.32 ± 4.9 kPa, the “vapor or sublimation pressure” value (397.89 K) was 27.32 ± 4.9 kPa and the “vapor or sublimation pressure” value (399.92 K) was 29.32 ± 5 kPa. For the same compound, the “vapor or sublimation pressure” value (401.9 K) was 31.32 ± 5.1 kPa, the “vapor or sublimation pressure” value (403.77 K) was 33.33 ± 5.2 kPa and the “vapor or sublimation pressure” value (405.7 K) was 35.33 ± 5.2 kPa. For the same compound, the “vapor or sublimation pressure” value (407.22 K) was 37.33 ± 5.3 kPa, the “vapor or sublimation pressure” value (408.94 K) was 39.33 ± 5.4 kPa and the “vapor or sublimation pressure” value (410.46 K) was 41.33 ± 5.5 kPa. For the same compound, the “vapor or sublimation pressure” value (411.98 K) was 43.33 ± 5.6 kPa, the “vapor or sublimation pressure” value (413.4 K) was 45.33 ± 5.6 kPa and the “vapor or sublimation pressure” value (414.87 K) was 47.33 ± 5.7 kPa. The “vapor or sublimation pressure” value (416.19 K) was 49.33 ± 5.8 kPa, the “vapor or sublimation pressure” value (417.55 K) was 51.33 ± 5.9 kPa and the “vapor or sublimation pressure” value (423.53 K) was 61.33 ± 6.3 kPa. For the same compound, the “vapor or sublimation pressure” value (429.06 K) was 71.33 ± 6.6 kPa, the “vapor or sublimation pressure” value (433.77 K) was 81.33 ± 7 kPa and the “vapor or sublimation pressure” value (437.93 K) was 91.33 ± 7.4 kPa.
